BigSolDB 2.1

C=C1CCN([C@H](C)[C@](O)(Cn2cncn2)c2ccc(F)cc2F)CC1
solubility (mole fraction)
Settings | 288.15 K | 293.15 K | 298.15 K | 303.15 K | 308.15 K
in DMF | 0.281 | 0.298 | 0.316 | 0.334 | 0.353
in THF | 0.321 | 0.335 | 0.351 | 0.367 | 0.382
in acetone | 0.243 | 0.261 | 0.28 | 0.301 | 0.321
in acetonitrile | 0.0874 | 0.109 | 0.136 | 0.168 | 0.204
in dichloromethane | 0.321 | 0.34 | 0.358 | 0.379 | 0.4
in ethanol | 0.122 | 0.144 | 0.172 | 0.203 | 0.242
in ethyl acetate | 0.231 | 0.251 | 0.272 | 0.297 | 0.321
in isopropanol | 0.0849 | 0.105 | 0.125 | 0.152 | 0.184
in methanol | 0.176 | 0.195 | 0.214 | 0.236 | 0.259
in n-butanol | 0.113 | 0.135 | 0.159 | 0.185 | 0.218
in n-propanol | 0.12 | 0.142 | 0.164 | 0.191 | 0.222
in propylene glycol | 0.0278 | 0.031 | 0.0343 | 0.0384 | 0.0424
in transcutol | 0.218 | 0.233 | 0.247 | 0.262 | 0.276
in water | 1.08e-06 | 1.4e-06 | 1.77e-06 | 2.29e-06 | 2.91e-06

Settings | solubility (mole fraction)
in PEG-400, 288.15 K | 0.171
in PEG-400, 293.15 K | 0.182
in PEG-400, 298.15 K | 0.194
in PEG-400, 303.15 K | 0.206
in PEG-400, 308.15 K | 0.219
